# Measurements reported in PubChem BioAssay (NCI).
# Several values for one entry are separate records, joined by “and”; a condition that tells them apart may be missing. Equal values may be shown once.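 Five compound concentrations were applied to cells in 96-well plates for 48 hours; endpoints were derived by simple linear interpolation of the resulting dose-response curve. GI50: concentration for 50% inhibition of growth. At the TGI there is no net growth.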
# Tests used:
# Experiment in all cases: growth of human tumour cells (NCI), 48 h
# HT29 colon = test system: HT29 colon
# CAKI-1 renal = test system: CAKI-1 renal
# RPMI-8226 leukemia = test system: RPMI-8226 leukemia
# HL-60(TB) leukemia = test system: HL-60(TB) leukemia
# MALME-3M melanoma = test system: MALME-3M melanoma
# CCRF-CEM leukemia = test system: CCRF-CEM leukemia
# NCI-H23 lung = test system: NCI-H23 lung
# OVCAR-5 ovarian = test system: OVCAR-5 ovarian
# MDA-MB-231 breast = test system: MDA-MB-231 breast
# PC-3 prostate = test system: PC-3 prostate
Structure (SMILES),TGI (HT29 colon) [µM],TGI (CAKI-1 renal) [µM],TGI (RPMI-8226 leukemia) [µM],TGI (HL-60(TB) leukemia) [µM],TGI (MALME-3M melanoma) [µM],TGI (CCRF-CEM leukemia) [µM],TGI (NCI-H23 lung) [µM],TGI (OVCAR-5 ovarian) [µM],GI50 (HT29 colon) [µM],GI50 (CAKI-1 renal) [µM],GI50 (RPMI-8226 leukemia) [µM],GI50 (HL-60(TB) leukemia) [µM],GI50 (MDA-MB-231 breast) [µM],TGI (MDA-MB-231 breast) [µM],GI50 (MALME-3M melanoma) [µM],GI50 (CCRF-CEM leukemia),GI50 (NCI-H23 lung) [µM],GI50 (OVCAR-5 ovarian) [µM],GI50 (PC-3 prostate) [µM],TGI (PC-3 prostate) [µM]
CCOc1ccc(NC(=O)CCC(=O)NN)cc1,> 100,> 100,> 100,> 100,> 100,> 100,> 100,> 100,,,,,,,,,,,,
CON,> 100,> 100,> 100,> 100,> 100,> 100,> 100,> 100,> 100,> 100,> 100,> 100,> 100,> 100,> 100,> 100 µM,> 100,> 100,,
OC1C2C=CCC1CCC2 (stereo unspecified),> 100,> 100,> 100,> 100,> 100,> 100,> 100,> 100,,,,,,,,,,,,
CC(=O)/C=C/C1=C(c2ccsc2)c2ccccc2CC1,> 100,83.4,47.6,,58.1,47.6,39.6,> 100,54.3,27.7,23.2,,19.3,49.4,23.6,23.6 µM,20.3,27.1,23.9,65.3
NC(=O)CCC(NC(=O)C(F)(F)F)C(=O)O (stereo unspecified),> 100,> 100,> 100,,> 100,> 100,> 100,> 100,,,,,,,,,,,,
O=P1(O)c2ccccc2CS(=O)(=O)Cc2ccccc21,> 100,> 100,,> 100,,> 100,> 100,> 100,,,,,,> 100,,,,,,> 100
CCOC(=O)CNC(=O)C(CSC(=O)N(C)O)NC(=O)CCC(N)C(=O)O (stereo unspecified),,> 2000,> 2000,> 2000,> 2000,,> 2000,,> 2000,> 2000,> 2000,> 2000,,,> 2000,> 2000 µM,> 2000,,,
CCOC(=O)C1(Cc2ccc3ccccc3c2)CCCCCN1 (stereo unspecified),26.9,> 100,27.6,52,33.9,,> 100,,,,,,,,,,,,,
Cc1cc(C)c2[s+]snc2c1,> 100,> 100,,44.7,> 100,> 100,> 100,> 100,,,,,,,,,,,,
O=C(Nc1ccc(S(=O)(=O)NC2CCCCCC2)cc1)C(c1ccccc1)S(=O)(=O)c1ccc(F)cc1 (stereo unspecified),1.56,,,2.51,1.81,> 100,0.933,3.15,0.214,,,0.357,0.35,1.94,0.25,0.577 µM,0.187,0.374,0.295,2.19
Cc1c(N2C(=O)/C(=C\c3ccc(N(C)C)cc3)N=C2c2ccccc2)c(=O)n(-c2ccccc2)n1C,> 100,> 100,> 92,> 100,> 100,,> 100,> 100,49.5,> 100,25.6,40.2,> 82.9,> 100,> 100,,> 92.2,> 90.1,29.7,> 100
O=C1c2ccccc2C(=O)c2sc(Nc3ccc(Cl)c(Cl)c3)nc21,42.5,8.83,5,1.18,9.47,5.15,10.5,7.58,,,,,,6.82,,,,,,
C[N+]1=c2c3cccc4cccc(c(=O)n2CCC1)c43,52.5,84,52.3,25.3,32.9,28.9,39.1,36.5,,,,,,,,,,,,
CC1=NN(c2ccccc2)C(=O)C1N=Nc1ccc(Br)c(C)c1 (stereo unspecified),> 100,> 100,> 100,> 100,> 100,> 100,> 100,> 100,,,,,,,,,,,,
Nn1c(N=Nc2c(O)[nH]c3ccccc23)n[nH]c1=S,> 100,> 100,> 100,> 100,> 100,> 100,> 100,> 100,,,,,,,,,,,,
CP(C)C.[Ag][I],> 100,> 100,> 100,> 100,> 100,> 100,> 100,> 100,,,,,,,,,,,,
NNC(=S)N/N=C/C(Cl)=C(\Cl)C(=O)O,> 100,> 100,> 100,> 100,> 100,> 100,> 100,> 100,,,,,,,,,,,,
Cc1cc2nc3c4ccccc4n(CCN(C)C)c3nc2cc1C,4.26,12.2,,6.26,2.74,13.6,5.7,6.45,0.76,0.982,,1.99,1.76,9.91,1.41,1.99 µM,1.87,2.1,2.01,8.19
CC12C(=O)N(CCN)C(=O)C1C1c3ccccc3C2c2ccccc21 (stereo unspecified),> 100,> 100,> 100,> 100,> 100,> 100,> 100,> 100,,,,,,,,,,,,
OC(c1ccccc1)c1c(-c2ccccc2)oc(-c2ccccc2)c1C(O)c1ccccc1 (stereo unspecified),23.1,30.4,14,6.13,25.4,17.1,23.3,32.6,,,,,,,,,,,,24.1
CN1CCN(c2ccc3nc4c(nc3c2C(F)(F)F)C(=O)c2ncccc2C4=O)CC1,6.18,2.75,7.59,5.92,2.24,7.32,1.91,,2.32,1.2,2.37,1.6,2.54,7,1.06,2.44 µM,0.365,,1.44,11.5

Structure (SMILES),TGI (HT29 colon) [µM],TGI (CAKI-1 renal) [µM],TGI (RPMI-8226 leukemia) [µM],TGI (HL-60(TB) leukemia) [µM],TGI (MALME-3M melanoma) [µM],TGI (CCRF-CEM leukemia) [µM],TGI (NCI-H23 lung) [µM],TGI (OVCAR-5 ovarian) [µM],GI50 (HT29 colon) [µM],GI50 (CAKI-1 renal) [µM],GI50 (RPMI-8226 leukemia) [µM],GI50 (HL-60(TB) leukemia) [µM],GI50 (MDA-MB-231 breast) [µM],TGI (MDA-MB-231 breast) [µM],GI50 (MALME-3M melanoma) [µM],GI50 (CCRF-CEM leukemia),GI50 (NCI-H23 lung) [µM],GI50 (OVCAR-5 ovarian) [µM],GI50 (PC-3 prostate) [µM],TGI (PC-3 prostate) [µM]
CC[O-].CC[O-].O=C([CH-]C(=O)c1ccccc1)c1ccccc1.O=C([CH-]C(=O)c1ccccc1)c1ccccc1.[Ti+4],> 100,> 100,> 100,> 100,> 100,,> 100,> 100,> 100,> 100,45.4,25.3,,,> 100,,> 100,> 100,,
CC(C)(C)C[P+](C)(C)c1ccccc1,> 100,> 100,> 100,> 100,> 100,> 100,> 100,> 100,,,,,,,,,,,,
Oc1[nH]c2ccc(Cl)cc2c1/C=c1/ccc2c(c1)N=C(c1cc(F)cc(F)c1)N=2,,> 100,> 100,7.23,> 100,,> 100,> 100,,5.1,3.31,3.39,3.85,> 100,57.5,,5.01,> 100,3.44,> 100
Cc1cc2c(cc1C)[n+]([O-])c(-c1c(Cl)cccc1Cl)c(N)[n+]2[O-],> 100,95.1,> 100,> 100,92.3,,75.8,> 100,,,,,,,,,,,,
Cc1cccc(N=C2NC(=O)C(CC(=O)Nc3ccc(Cl)cc3C)S2)c1 (stereo unspecified),> 100,> 100,> 100,> 100,> 100,> 100,> 100,> 100,,,,,,,,,,,,
CCC[CH2][Sn]1([CH2]CCC)[O]C(=O)c2cc(C)ccc2[O]1,2.56,0.785,0.599,0.444,0.938,0.561,1.29,3.04,1.24,0.169,0.193,0.164,,,0.112,0.167 µM,0.332,1.66,,
N#CC12Cc3ccc4c(c3-c3cccc(c31)CCN2C(=O)c1ccccc1)OCO4 (stereo unspecified),> 100,,> 100,> 100,> 100,> 100,> 100,> 100,,,,,,,,,,,,
CC12OC3CC(O1)C1(C=O)C4CCC5(C)C(c6ccc(=O)oc6)CCC5(O)C4CCC1(C3)O2 (stereo unspecified),1.3,0.729,0.304,0.474,0.51,1.2,,1.19,,,,,,,,,,,,
CC(C)[O-].CC(C)[O-].[O-]c1cccc2cccnc12.[O-]c1cccc2cccnc12.[Ti+4],,> 100,,,> 100,> 100,> 100,> 100,,,,2.24,,,25.7,1.77 µM and 3.32 µM,> 100,51.1,,
O=C1c2ccccc2C(=O)c2c(NC(=O)c3ccc4c5c(ncnc35)-c3ccccc3C4=O)cccc21,> 100,> 100,> 100,,> 100,,> 100,> 100,,,,,,> 100,,,,,,> 100
COc1cccc(Nc2nccc(Nc3ccc4[nH]ncc4c3)n2)c1,3.45,2.51,4.19,3.56,,4.56,3.83,,1.52,0.993,1.36,1.53,,,,0.901 µM,1.69,,1.34,3.12
COC(=O)C1=Cc2c(OC)cc(OC)c(OC)c2[C@H](c2cc(OC)c(OC)cc2OC)C1C(=O)OC (stereo partly specified),> 100,> 100,> 100,> 100,> 100,> 100,> 100,> 100,,,,,,,,,,,,
Cc1sc(/N=C2/NC(=O)CS2)nc1-c1nc(/N=C2/NC(=O)CS2)sc1C,> 50,> 50,49.1,> 50,,,> 50,> 50,32.2,> 50,9.59,> 50,> 50,> 50,,,> 50,> 50,16.8,> 50
C=C(C)[C@@H]1CC[C@]2(C)[C@H](C=CC3=C4C[C@@](C)(CO)CC[C@]4(C)CC[C@]32C)[C@@]1(C)CCCN,3.28,2.85,,,2.91,5.56,3.32,3.09,1.63,1.52,,,1.77,3.27,1.46,2.12 µM,1.77,1.71,1.7,3.28
CCc1oc2ccc(OC)c3c2c1C=CC=C3,> 100,,> 100,> 100,> 100,> 100,> 100,> 100,,,,,,,,,,,,
O=c1[nH]c2c(O)cccc2c2cc3c(c(O)c12)OCO3,50.6,40.8,92,31.1,56.4,64.3,,,,,,,,,,,,,,
CC(C)NC(=O)O/N=C1\CCC2[C@@H]3CC=C4C[C@@H](OC(=O)NC(C)C)CC[C@]4(C)C3CC[C@]12C (stereo partly specified),8.87,4.29,2.96,5.37,0.983,5.03,3.79,4.26,,,,,,,,,,,,
CCOC(=O)C1CC/C(=C(/C#N)C(=O)OC)N1 (stereo unspecified),,> 100,> 100,> 100,,> 100,> 100,,,,,,,,,,,,,
CCOC(=O)N1CCC(=O)C[C@@H]1C/C=C/P1(=O)O[C@H](c2ccccc2)C(C)N1C(C)C (stereo partly specified),> 100,> 100,> 100,,> 100,,> 100,> 100,,,,,,,,,,,,
N#CC(C#N)=Cc1ccc(-c2ccc(-c3nc4ccccc4o3)cc2)o1,> 100,> 100,,,> 100,> 100,93.8,52,41.2,40,,,19.9,69.5,41.9,11.6 µM,27.2,27.1,29.5,> 100
